Values of other authors in PubChem BioAssay AID1259409 (Chemical Carcinogenesis Research Information System (CCRIS), 2018).

Test system: rodent chemically induced tumor inhibition, incidence and multiplicity
Assay: CCRIS tumor inhibitor studies
Details: Dose [Inhibitor]: 0, Promoter: NONE USED

SMILES: S=C=NCCc1ccccc1
- tumour outcome (control, treated, inhibition, significance) (Carcinogen: BENZO[A]PYRENE, 50-32-8, 12 MG/KG/D FOR 6 CONSECUTIVE DAYS (STUDY DURATION: 7 MO), Route [Inhibitor]: GAVAGE, Species: MOUSE, Strain/Sex: STRAIN-A/FEMALE, Target Tissue: Type of Lesion: LUNG: TUMOR, Dose [Carcinogen]: 100 MG/KG ONCE AFTER FOURTH INHIBITOR DOSE): 100%, 100%, 0%, not significant
- tumour outcome (control, treated, inhibition, significance) (Carcinogen: BENZO[A]PYRENE, 50-32-8, 12 MG/KG/D FOR 6 CONSECUTIVE DAYS (STUDY DURATION: 7 MO), Route [Inhibitor]: GAVAGE, Species: MOUSE, Strain/Sex: STRAIN-A/MALE, Target Tissue: Type of Lesion: LUNG: TUMOR, Dose [Carcinogen]: 100 MG/KG ONCE AFTER FOURTH INHIBITOR DOSE): 100%, 100%, 0%, not significant
- tumour outcome (control, treated, inhibition, significance) (Carcinogen: BENZO[A]PYRENE, 50-32-8, 41 MG/KG/D FOR 6 CONSECUTIVE DAYS (STUDY DURATION: 7 MO), Route [Inhibitor]: GAVAGE, Species: MOUSE, Strain/Sex: STRAIN-A/FEMALE, Target Tissue: Type of Lesion: LUNG: TUMOR, Dose [Carcinogen]: 100 MG/KG ONCE AFTER FOURTH INHIBITOR DOSE): 100%, 100%, 0%, not significant
- tumour outcome (control, treated, inhibition, significance) (Carcinogen: BENZO[A]PYRENE, 50-32-8, 41 MG/KG/D FOR 6 CONSECUTIVE DAYS (STUDY DURATION: 7 MO), Route [Inhibitor]: GAVAGE, Species: MOUSE, Strain/Sex: STRAIN-A/MALE, Target Tissue: Type of Lesion: LUNG: TUMOR, Dose [Carcinogen]: 100 MG/KG ONCE AFTER FOURTH INHIBITOR DOSE): 100%, 95%, 5%, not calculated
- tumour outcome (control, treated, inhibition, significance) (Carcinogen: BENZO[A]PYRENE, 50-32-8, 82 MG/KG/D FOR 6 CONSECUTIVE DAYS (STUDY DURATION: 7 MO), Route [Inhibitor]: GAVAGE, Species: MOUSE, Strain/Sex: STRAIN-A/FEMALE, Target Tissue: Type of Lesion: LUNG: TUMOR, Dose [Carcinogen]: 100 MG/KG ONCE AFTER FOURTH INHIBITOR DOSE): 100%, 100%, 0%, not significant
- tumour outcome (control, treated, inhibition, significance) (Carcinogen: BENZO[A]PYRENE, 50-32-8, 82 MG/KG/D FOR 6 CONSECUTIVE DAYS (STUDY DURATION: 7 MO), Route [Inhibitor]: GAVAGE, Species: MOUSE, Strain/Sex: STRAIN-A/MALE, Target Tissue: Type of Lesion: LUNG: TUMOR, Dose [Carcinogen]: 100 MG/KG ONCE AFTER FOURTH INHIBITION DOSE): 100%, 100%, 0%, not significant
- tumour outcome (control, treated, inhibition, significance) (Carcinogen: BENZO[A]PYRENE, 50-32-8, 122 MG/KG/D FOR 6 CONSECUTIVE DAYS (STUDY DURATION: 7 MO), Route [Inhibitor]: GAVAGE, Species: MOUSE, Strain/Sex: STRAIN-A/FEMALE, Target Tissue: Type of Lesion: LUNG: TUMOR, Dose [Carcinogen]: 100 MG/KG ONCE AFTER FOURTH INHIBITOR DOSE): 100%, 90%, 10%, not significant
- tumour outcome (control, treated, inhibition, significance) (Carcinogen: BENZO[A]PYRENE, 50-32-8, 122 MG/KG/D FOR 6 CONSECUTIVE DAYS (STUDY DURATION: 7 MO), Route [Inhibitor]: GAVAGE, Species: MOUSE, Strain/Sex: STRAIN-A/MALE, Target Tissue: Type of Lesion: LUNG: TUMOR, Dose [Carcinogen]: 100 MG/KG ONCE AFTER FOURTH INHIBITOR DOSE): 100%, 95%, 5%, not significant
- tumour outcome (control, treated, inhibition, significance) (Carcinogen: DIETHYLNITROSAMINE, 55-18-5, 82 MG/KG BW BY INTRAPERITONEAL INJECTION ON DAYS 13, 14 AND 15 OF AGE THEN 0.65 G/KG DIET FROM 21 TO 161 DAYS OF AGE, Route [Inhibitor]: INTRAPERITONEAL, ORAL, Species: MOUSE, Strain/Sex: C3H/MALE, Target Tissue: Type of Lesion: LIVER: ADENOMA, Dose [Carcinogen]: 4 MG/KG IN TRICAPRYLIN ONCE ON DAY 15 OF AGE): 100%, 89%, 11%, not significant
- tumour outcome (control, treated, inhibition, significance) (Carcinogen: DIETHYLNITROSAMINE, 55-18-5, N-METHYL-N-NITROSOUREA, 684-93-5, N-BUTYL-N-(4-HYDROXYBUTYL)NITROSAMINE, 3817-11-6, DIMETHY, Carcinogen: DIETHYLNITROSAMINE, 55-18-5, N-METHYL-N-NITROSOUREA, 684-93-5, N-BUTYL-N-(4-HYDROXYBUTYL)NITROSAMINE, 3817-11-6, DIMETHY, 0.1% IN THE DIET FOR 24 WK BEGINNING 1 DAY POST CARCINOGEN TREATMENT (STUDY DURATION: 28 WK), Route [Inhibitor]: ORAL, Species: RAT, Strain/Sex: F344/MALE, Target Tissue: Type of Lesion: LARGE INTESTINE: ADENOMA, Dose [Carcinogen]: 100 MG/KG BW DEN ONCE FOLLOWED BY 20 MG/KG BW MNU 4 TIMES AND 0.05% BBN IN DRINKING WATER DURING FIRST 2 WK THEN 40 MG/K): 27%, 7%, 74%, not significant
- tumour outcome (control, treated, inhibition, significance) (Carcinogen: DIETHYLNITROSAMINE, 55-18-5, N-METHYL-N-NITROSOUREA, 684-93-5, N-BUTYL-N-(4-HYDROXYBUTYL)NITROSAMINE, 3817-11-6, DIMETHY, Carcinogen: DIETHYLNITROSAMINE, 55-18-5, N-METHYL-N-NITROSOUREA, 684-93-5, N-BUTYL-N-(4-HYDROXYBUTYL)NITROSAMINE, 3817-11-6, DIMETHY, 0.1% IN THE DIET FOR 24 WK BEGINNING 1 DAY POST CARCINOGEN TREATMENT (STUDY DURATION: 28 WK), Route [Inhibitor]: ORAL, Species: RAT, Strain/Sex: F344/MALE, Target Tissue: Type of Lesion: LARGE INTESTINE: CARCINOMA, Dose [Carcinogen]: 100 MG/KG BW DEN ONCE FOLLOWED BY 20 MG/KG BW MNU 4 TIMES AND 0.05% BBN IN DRINKING WATER DURING FIRST 2 WK THEN 40 MG/K): 7%, 0%, 100%, not significant
- tumour outcome (control, treated, inhibition, significance) (Carcinogen: DIETHYLNITROSAMINE, 55-18-5, N-METHYL-N-NITROSOUREA, 684-93-5, N-BUTYL-N-(4-HYDROXYBUTYL)NITROSAMINE, 3817-11-6, DIMETHY, Carcinogen: DIETHYLNITROSAMINE, 55-18-5, N-METHYL-N-NITROSOUREA, 684-93-5, N-BUTYL-N-(4-HYDROXYBUTYL)NITROSAMINE, 3817-11-6, DIMETHY, 0.1% IN THE DIET FOR 24 WK BEGINNING 1 DAY POST CARCINOGEN TREATMENT (STUDY DURATION: 28 WK), Route [Inhibitor]: ORAL, Species: RAT, Strain/Sex: F344/MALE, Target Tissue: Type of Lesion: SMALL INTESTINE: ADENOMA, Dose [Carcinogen]: 100 MG/KG BW DEN ONCE FOLLOWED BY 20 MG/KG BW MNU 4 TIMES AND 0.05% BBN IN DRINKING WATER DURING FIRST 2 WK THEN 40 MG/K): 33%, 50%, -52%, not significant
- tumour outcome (control, treated, inhibition, significance) (Carcinogen: DIETHYLNITROSAMINE, 55-18-5, N-METHYL-N-NITROSOUREA, 684-93-5, N-BUTYL-N-(4-HYDROXYBUTYL)NITROSAMINE, 3817-11-6, DIMETHY, Carcinogen: DIETHYLNITROSAMINE, 55-18-5, N-METHYL-N-NITROSOUREA, 684-93-5, N-BUTYL-N-(4-HYDROXYBUTYL)NITROSAMINE, 3817-11-6, DIMETHY, 0.1% IN THE DIET FOR 24 WK BEGINNING 1 DAY POST CARCINOGEN TREATMENT (STUDY DURATION: 28 WK), Route [Inhibitor]: ORAL, Species: RAT, Strain/Sex: F344/MALE, Target Tissue: Type of Lesion: SMALL INTESTINE: CARCINOMA, Dose [Carcinogen]: 100 MG/KG BW DEN ONCE FOLLOWED BY 20 MG/KG BW MNU 4 TIMES AND 0.05% BBN IN DRINKING WATER DURING FIRST 2 WK THEN 40 MG/K): 7%, 14%, -100%, not significant
- tumour outcome (control, treated, inhibition, significance) (Carcinogen: DIETHYLNITROSAMINE, 55-18-5, N-METHYL-N-NITROSOUREA, 684-93-5, N-BUTYL-N-(4-HYDROXYBUTYL)NITROSAMINE, 3817-11-6, DIMETHY, Carcinogen: DIETHYLNITROSAMINE, 55-18-5, N-METHYL-N-NITROSOUREA, 684-93-5, N-BUTYL-N-(4-HYDROXYBUTYL)NITROSAMINE, 3817-11-6, DIMETHY, 0.1% IN THE DIET FOR 24 WK BEGINNING 1 DAY POST CARCINOGEN TREATMENT (STUDY DURATION: 28 WK), Route [Inhibitor]: ORAL, Species: RAT, Strain/Sex: F344/MALE, Target Tissue: Type of Lesion: THYROID: CARCINOMA, Dose [Carcinogen]: 100 MG/KG BW DEN ONCE FOLLOWED BY 20 MG/KG BW MNU 4 TIMES AND 0.05% BBN IN DRINKING WATER DURING FIRST 2 WK THEN 40 MG/K): 7%, 8%, -14%, not significant
- tumour outcome (control, treated, inhibition, significance) (Carcinogen: DIETHYLNITROSAMINE, 55-18-5, N-METHYL-N-NITROSOUREA, 684-93-5, N-BUTYL-N-(4-HYDROXYBUTYL)NITROSAMINE, 3817-11-6, DIMETHY, Carcinogen: DIETHYLNITROSAMINE, 55-18-5, N-METHYL-N-NITROSOUREA, 684-93-5, N-BUTYL-N-(4-HYDROXYBUTYL)NITROSAMINE, 3817-11-6, DIMETHY, 0.1% IN THE DIET FOR 24 WK BEGINNING 1 DAY POST CARCINOGEN TREATMENT (STUDY DURATION: 28 WK), Route [Inhibitor]: ORAL, Species: RAT, Strain/Sex: F344/MALE, Target Tissue: Type of Lesion: URINARY BLADDER: PAPILLOMA, Dose [Carcinogen]: 100 MG/KG BW DEN ONCE FOLLOWED BY 20 MG/KG BW MNU 4 TIMES AND 0.05% BBN IN DRINKING WATER DURING FIRST 2 WK THEN 40 MG/K): 7%, 33%, -371%, not significant
- tumour outcome (control, treated, inhibition, significance) (Carcinogen: DIETHYLNITROSAMINE, 55-18-5, N-METHYL-N-NITROSOUREA, 684-93-5, N-BUTYL-N-(4-HYDROXYBUTYL)NITROSAMINE, 3817-11-6, DIMETHY, Carcinogen: DIETHYLNITROSAMINE, 55-18-5, N-METHYL-N-NITROSOUREA, 684-93-5, N-BUTYL-N-(4-HYDROXYBUTYL)NITROSAMINE, 3817-11-6, DIMETHY, 0.1% IN THE DIET FOR 24 WK BEGINNING 1 WK P0ST CARCINOGEN TREATMENT (STUDY DURATION: 28 WK), Route [Inhibitor]: ORAL, Species: RAT, Strain/Sex: F344/MALE, Target Tissue: Type of Lesion: URINARY BLADDER: CARCINOMA, Dose [Carcinogen]: 100 MG/KG BW DEN ONCE FOLLOWED BY 20 MG/KG BW MNU 4 TIMES AND 0.05% BBN IN DRINKING WATER DURING FIRST 2 WK THEN 40 MG/K): 7%, 33%, -371%, not significant
